Tested on: Aspergillus
Source text: Compounds such as calcofluor can be used for visualizing a broad range of medically relevant fungi under the microscope, due to their specific nature of binding, high level fluorescence (detectable under the microscope) and low binding to patient tissue. Calcofluor is a fairly non-toxic compound that is used to dye clothes, due to its high affinity for cellulose-containing cotton fibers. It has also been used to follow ground water migration due to its fluorescent properties and low toxicity.

Compound: O=S(=O)([O-])c1cc(Nc2nc(Nc3ccccc3)nc(N(CCO)CCO)n2)ccc1C=Cc1ccc(Nc2nc(Nc3ccccc3)nc(N(CCO)CCO)n2)cc1S(=O)(=O)[O-].[Na+].[Na+] [calcofluor]
- recovery of injected compound in lung tissue (in vivo): could be recovered in harvested lung tissue
- fluorescent staining of fungal hyphae in lung tissue (microscope, lung tissue removed from subject infected with Aspergillus): demonstrated fluorescent fungal hyphal forms under the microscope

— patent publication US10383960B2, “Small molecule imaging of fungi by positron emission tomography scanning” (The United States of America, as represented by the …, priority 2013, dated 2019)
